In ChEMBL document CHEMBL1201862, “PubChem BioAssay data set” (2004):
Active and inactive are the calls of the source.

How the values were obtained:
[1] = target: T1, Probable nicotinate-nucleotide adenylyltransferase (Staphylococcus aureus (strain N315), UniProt P65502); assay type: functional, Staphylococcus aureus subsp. aureus N315;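 for IC50 Mean: confirmatory dose-response retesting of NadD inhibitor hits first found in an ultra-high-throughput screen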
[2] = target: T1, Probable nicotinate-nucleotide adenylyltransferase; assay type: functional, Staphylococcus aureus subsp. aureus N315; conditions: read-out: IC50_Mean
[3] = target: Dual specificity tyrosine-phosphorylation-regulated kinase 1A (Rattus norvegicus, UniProt Q63470); assay type: biochemical, Homo sapiens
[4] = target: T2, Low molecular weight phosphotyrosine protein phosphatase (Homo sapiens, UniProt P24666); assay type: functional; conditions: read-out: IC50_Mean
T2 sequence (P24666 whole entry): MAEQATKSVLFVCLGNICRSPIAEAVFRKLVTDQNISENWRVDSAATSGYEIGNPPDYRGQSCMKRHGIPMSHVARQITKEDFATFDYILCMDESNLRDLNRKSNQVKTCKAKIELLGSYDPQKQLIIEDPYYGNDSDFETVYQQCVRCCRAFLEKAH

[5] = target: T2, Low molecular weight phosphotyrosine protein phosphatase; assay type: functional; conditions: read-out: IC50_Mean; remark: listed apart in the source
[6] = target: T3, Tyrosine-protein phosphatase non-receptor type 22 (Homo sapiens, UniProt Q9Y2R2); assay: PTPN22 enzyme inhibitors – biochemical, fluorescence, LYP catalytic domain, selectivity assay for LMPTP inhibitor project, dose response (AID 652006); assay type: functional; conditions: read-out: IC50_Mean
T3 sequence (Q9Y2R2 whole entry): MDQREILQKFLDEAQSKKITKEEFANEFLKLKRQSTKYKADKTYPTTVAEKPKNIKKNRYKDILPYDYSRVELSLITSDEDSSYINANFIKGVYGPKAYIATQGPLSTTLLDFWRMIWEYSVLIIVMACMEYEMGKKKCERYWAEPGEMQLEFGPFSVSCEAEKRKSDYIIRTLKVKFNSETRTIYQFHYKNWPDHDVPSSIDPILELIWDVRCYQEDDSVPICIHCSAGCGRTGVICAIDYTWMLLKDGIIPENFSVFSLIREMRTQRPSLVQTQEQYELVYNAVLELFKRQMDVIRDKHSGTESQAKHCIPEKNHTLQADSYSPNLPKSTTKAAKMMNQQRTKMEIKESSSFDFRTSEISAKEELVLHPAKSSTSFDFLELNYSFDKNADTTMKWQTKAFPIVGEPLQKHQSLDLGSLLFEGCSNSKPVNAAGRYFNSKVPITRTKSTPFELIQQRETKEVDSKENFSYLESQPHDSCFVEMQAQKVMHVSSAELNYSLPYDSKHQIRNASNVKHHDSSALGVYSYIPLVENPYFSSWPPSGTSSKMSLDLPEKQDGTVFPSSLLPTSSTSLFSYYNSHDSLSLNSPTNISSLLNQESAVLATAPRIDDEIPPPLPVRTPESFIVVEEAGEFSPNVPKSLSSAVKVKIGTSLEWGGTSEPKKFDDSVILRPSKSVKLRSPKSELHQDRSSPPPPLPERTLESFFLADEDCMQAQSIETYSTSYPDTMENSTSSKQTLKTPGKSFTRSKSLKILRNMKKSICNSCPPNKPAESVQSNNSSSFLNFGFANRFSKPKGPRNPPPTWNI

[7] = Counterscreen for IDE inhibitors: Luminescence-based cell-based high throughput dose response assay to identify compounds that are cytotoxic to HEK cells. [Related pubchem assays: 434962 (Primary screen (IDE inhibitors in singlicate)), 449730 (Counterscreen (Cytotoxicity in triplicate)), 435028 (Confirmation (IDE inhibitors in triplicate)) …; assay type: functional; conditions: HEK293
[8] = target: Large T antigen (Simian virus 40, UniProt P03070); assay type: functional, Betapolyomavirus macacae;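 note: Confirmatory-stage PubChem screen for compounds that inhibit SV40 T antigen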
[9] = target: Glucose-6-phosphate 1-dehydrogenase (Homo sapiens, UniProt P11413); assay: inhibition of Homo sapiens G6PD, dose series – biochemical, fluorescence, selectivity assay for P. falciparum G6PD inhibitor project, dose response (AID 504792); assay type: functional
[10] = target: T4, Mitochondrial peptide methionine sulfoxide reductase (Bos taurus, UniProt P54149); assay: Absorbance-based biochemical high throughput dose response assay for activators of Methionine sulfoxide reductase A (MsrA).; assay type: functional
T4 sequence (P54149 whole entry): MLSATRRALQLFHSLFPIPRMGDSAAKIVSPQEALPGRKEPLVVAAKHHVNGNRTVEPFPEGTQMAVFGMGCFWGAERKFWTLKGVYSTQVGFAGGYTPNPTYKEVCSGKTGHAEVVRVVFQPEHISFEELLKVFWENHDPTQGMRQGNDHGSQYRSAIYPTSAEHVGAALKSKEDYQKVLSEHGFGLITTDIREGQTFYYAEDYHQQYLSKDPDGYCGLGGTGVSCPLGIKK

[11] = target: T5, Insulin-degrading enzyme (Homo sapiens, UniProt P14735); assay: Dose Response: Fluorescence polarization-based cell-based high throughput dose response assay for inhibitors of insulin-degrading enzyme (IDE). [Related pubchem assays: 434962 (Primary screen (IDE inhibitors in singlicate)), 449730 (Counterscreen (Cytotoxicity in triplicate)), 435028 (Confirmation (IDE inhibitors in triplicate)), 434984 (Summary …; assay type: functional
T5 sequence (P14735 whole entry): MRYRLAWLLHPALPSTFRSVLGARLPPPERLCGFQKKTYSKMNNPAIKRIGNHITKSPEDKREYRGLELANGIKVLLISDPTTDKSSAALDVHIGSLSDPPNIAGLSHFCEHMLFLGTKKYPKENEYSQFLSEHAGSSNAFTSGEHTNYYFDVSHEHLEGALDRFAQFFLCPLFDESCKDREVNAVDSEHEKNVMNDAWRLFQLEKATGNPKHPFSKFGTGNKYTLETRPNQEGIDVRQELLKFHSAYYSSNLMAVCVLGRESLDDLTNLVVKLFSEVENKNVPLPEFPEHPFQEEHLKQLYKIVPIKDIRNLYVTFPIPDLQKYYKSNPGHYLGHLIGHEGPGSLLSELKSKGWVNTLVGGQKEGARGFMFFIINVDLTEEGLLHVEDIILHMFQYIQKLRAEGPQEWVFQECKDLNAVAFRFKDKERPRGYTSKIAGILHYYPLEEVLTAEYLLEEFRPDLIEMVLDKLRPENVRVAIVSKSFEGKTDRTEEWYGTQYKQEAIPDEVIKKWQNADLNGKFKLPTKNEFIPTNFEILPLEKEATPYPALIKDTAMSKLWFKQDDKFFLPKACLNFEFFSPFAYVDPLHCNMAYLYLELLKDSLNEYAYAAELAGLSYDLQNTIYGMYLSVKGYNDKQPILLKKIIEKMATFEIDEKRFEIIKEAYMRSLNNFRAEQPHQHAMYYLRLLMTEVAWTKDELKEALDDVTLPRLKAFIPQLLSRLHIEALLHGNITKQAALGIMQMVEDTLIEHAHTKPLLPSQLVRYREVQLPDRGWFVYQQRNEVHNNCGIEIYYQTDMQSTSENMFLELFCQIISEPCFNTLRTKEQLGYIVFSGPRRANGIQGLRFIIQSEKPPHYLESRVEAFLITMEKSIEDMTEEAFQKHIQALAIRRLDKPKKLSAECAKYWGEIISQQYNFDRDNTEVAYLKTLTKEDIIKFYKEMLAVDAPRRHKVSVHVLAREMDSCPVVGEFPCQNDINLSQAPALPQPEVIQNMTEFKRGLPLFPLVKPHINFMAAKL

[12] = target: Potassium voltage-gated channel subfamily KQT member 2 (Rattus norvegicus, UniProt O88943); assay: blockers of KCNQ2 channel current – cell-based, automated electrophysiology, set II, rat KCNQ2, dose response (AID 588637); assay type: functional
[13] = target: T6, Sentrin-specific protease 1 (Homo sapiens, UniProt Q9P0U3); assay: SENP1 catalytic domain blockers, concentration series – biochemical, kinetic FRET, dose response (AID 651697); assay type: functional; conditions: read-out: IC50_Mean
T6 sequence (Q9P0U3 whole entry): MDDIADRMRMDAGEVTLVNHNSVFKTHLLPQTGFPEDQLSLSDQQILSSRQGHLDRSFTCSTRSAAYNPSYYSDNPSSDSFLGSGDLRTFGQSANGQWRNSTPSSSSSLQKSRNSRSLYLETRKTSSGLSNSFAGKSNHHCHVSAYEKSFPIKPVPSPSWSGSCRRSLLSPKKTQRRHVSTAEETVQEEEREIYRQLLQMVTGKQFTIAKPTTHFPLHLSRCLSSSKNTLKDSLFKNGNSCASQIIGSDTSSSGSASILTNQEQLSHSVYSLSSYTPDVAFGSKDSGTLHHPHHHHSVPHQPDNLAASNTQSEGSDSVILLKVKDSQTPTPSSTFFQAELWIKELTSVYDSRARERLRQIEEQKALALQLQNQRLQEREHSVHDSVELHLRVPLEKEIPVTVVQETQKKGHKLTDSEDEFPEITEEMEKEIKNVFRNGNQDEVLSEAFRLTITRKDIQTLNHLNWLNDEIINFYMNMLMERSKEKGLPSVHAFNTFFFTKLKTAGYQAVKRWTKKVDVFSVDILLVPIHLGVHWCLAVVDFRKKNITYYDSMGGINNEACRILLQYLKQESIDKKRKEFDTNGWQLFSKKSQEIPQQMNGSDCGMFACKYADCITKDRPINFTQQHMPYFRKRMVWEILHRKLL

[14] = target: T6, Sentrin-specific protease 1; assay: Dose response confirmation of small molecule inhibitors of the catalytic domain of the SUMO protease, SENP1 in a FRET assay.; assay type: functional; conditions: read-out: IC50_Mean
[15] = nonselective StAR promoter luciferase inhibitors – cell-based, luminescence, luciferase reporter, counter-screen for LRH-1 inverse agonist project, dose response (AID 651969); assay type: functional
[16] = target: Steroidogenic factor 1 (Homo sapiens, UniProt Q13285); assay: Counterscreen for inverse agonists of the liver receptor homolog-1 (LRH-1; NR5A2): Luminescence-based cell-based high throughput dose response assay to identify inverse agonists of the Steroidogenic Factor 1 Nuclear Receptor (SF1; NR5A1).; assay type: functional
[17] = target: Nuclear receptor subfamily 5 group A member 2 (Homo sapiens, UniProt O00482); assay type: functional, cell-based;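 note: HEK293T cells transfected with LRH-1 and a StAR promoter luciferase reporter; potency for inhibitors that lower LRH-1 driven reporter light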
[18] = target: T7, DNA repair and recombination protein RAD54-like (Homo sapiens, UniProt Q92698); assay: RAD54 Holliday junction migration blockers – biochemical, fluorescence, cherry-picked samples, dose series, confirmation (AID 651657); assay type: functional
T7 sequence (Q92698 whole entry): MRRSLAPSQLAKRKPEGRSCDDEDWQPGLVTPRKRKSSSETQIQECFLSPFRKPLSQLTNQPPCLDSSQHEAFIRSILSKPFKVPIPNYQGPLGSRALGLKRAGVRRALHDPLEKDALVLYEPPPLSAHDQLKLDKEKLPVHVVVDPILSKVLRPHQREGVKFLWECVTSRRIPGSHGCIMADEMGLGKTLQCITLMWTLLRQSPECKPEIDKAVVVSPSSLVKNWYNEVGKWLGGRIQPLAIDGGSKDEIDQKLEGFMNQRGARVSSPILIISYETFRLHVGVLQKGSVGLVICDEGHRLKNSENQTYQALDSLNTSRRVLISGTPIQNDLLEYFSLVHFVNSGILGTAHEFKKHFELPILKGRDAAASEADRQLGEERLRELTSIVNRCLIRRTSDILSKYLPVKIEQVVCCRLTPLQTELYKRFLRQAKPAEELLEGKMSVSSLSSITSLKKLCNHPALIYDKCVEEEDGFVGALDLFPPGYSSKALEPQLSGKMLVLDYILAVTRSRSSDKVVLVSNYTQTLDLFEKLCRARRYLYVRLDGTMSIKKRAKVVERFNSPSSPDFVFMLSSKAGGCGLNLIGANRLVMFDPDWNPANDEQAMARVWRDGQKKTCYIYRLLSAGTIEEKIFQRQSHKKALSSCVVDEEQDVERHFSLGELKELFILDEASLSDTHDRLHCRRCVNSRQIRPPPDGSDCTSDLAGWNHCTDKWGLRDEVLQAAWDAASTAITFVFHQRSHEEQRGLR

[19] = acridine orange displacement from DNA – biochemical, fluorescence polarization, cherry-pick, artefact control for RAD54 inhibitor project, dose response (AID 651673); assay type: functional
[20] = mouse fibroblast viability loss – cell-based, cherry-pick samples, set 2, cytotoxicity control for T. cruzi growth inhibitor project, dose response (AID 651817); assay type: functional; conditions: NIH3T3
[21] = target: Paired box protein Pax-8 (Homo sapiens, UniProt Q06710); assay: PAX8 transcriptional activity inhibition in RMG-I – RMG-I cells, luciferase, cherry-pick, dose response (AID 687027); assay type: functional, cell-based;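 note: luciferase reporter driven by Pax8 target thyroperoxidase promoter measured by SteadyGlo luminescence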
Sequence of Paired box protein Pax-8 (Q06710 whole entry): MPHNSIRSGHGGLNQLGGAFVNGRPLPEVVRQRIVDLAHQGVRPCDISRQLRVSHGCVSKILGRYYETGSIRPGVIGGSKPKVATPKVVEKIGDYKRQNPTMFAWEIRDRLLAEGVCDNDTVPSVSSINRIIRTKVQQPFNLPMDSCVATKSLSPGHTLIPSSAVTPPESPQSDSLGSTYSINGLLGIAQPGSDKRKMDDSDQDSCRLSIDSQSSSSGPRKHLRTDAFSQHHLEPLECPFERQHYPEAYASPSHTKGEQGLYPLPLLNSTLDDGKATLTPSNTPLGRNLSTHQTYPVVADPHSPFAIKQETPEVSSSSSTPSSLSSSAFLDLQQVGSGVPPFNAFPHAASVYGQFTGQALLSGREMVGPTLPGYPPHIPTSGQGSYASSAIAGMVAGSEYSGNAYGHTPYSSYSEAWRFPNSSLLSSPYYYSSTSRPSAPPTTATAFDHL

T1 sequence (P65502 whole entry): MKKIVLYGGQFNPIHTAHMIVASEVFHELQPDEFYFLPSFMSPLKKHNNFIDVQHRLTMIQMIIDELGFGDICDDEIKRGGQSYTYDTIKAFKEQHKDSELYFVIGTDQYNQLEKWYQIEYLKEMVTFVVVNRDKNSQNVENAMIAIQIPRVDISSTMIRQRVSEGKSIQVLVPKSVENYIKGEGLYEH
Sequence of Nuclear receptor subfamily 5 group A member 2 (O00482 whole entry): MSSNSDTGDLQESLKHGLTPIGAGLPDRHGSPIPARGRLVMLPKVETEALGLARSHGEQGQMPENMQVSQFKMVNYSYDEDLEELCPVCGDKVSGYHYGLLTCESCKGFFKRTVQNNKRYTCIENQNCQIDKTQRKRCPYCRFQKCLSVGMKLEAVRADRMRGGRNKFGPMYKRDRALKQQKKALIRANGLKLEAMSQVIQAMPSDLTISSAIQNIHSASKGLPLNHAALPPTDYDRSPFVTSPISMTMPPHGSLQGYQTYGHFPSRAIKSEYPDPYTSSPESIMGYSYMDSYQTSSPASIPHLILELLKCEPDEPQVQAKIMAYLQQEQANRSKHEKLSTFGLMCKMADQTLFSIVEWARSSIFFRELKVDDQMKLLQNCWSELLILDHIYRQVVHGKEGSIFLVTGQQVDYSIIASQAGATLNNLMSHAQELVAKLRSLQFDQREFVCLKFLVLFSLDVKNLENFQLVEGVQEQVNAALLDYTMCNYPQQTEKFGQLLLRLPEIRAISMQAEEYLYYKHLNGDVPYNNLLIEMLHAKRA
Sequence of Glucose-6-phosphate 1-dehydrogenase (P11413 whole entry): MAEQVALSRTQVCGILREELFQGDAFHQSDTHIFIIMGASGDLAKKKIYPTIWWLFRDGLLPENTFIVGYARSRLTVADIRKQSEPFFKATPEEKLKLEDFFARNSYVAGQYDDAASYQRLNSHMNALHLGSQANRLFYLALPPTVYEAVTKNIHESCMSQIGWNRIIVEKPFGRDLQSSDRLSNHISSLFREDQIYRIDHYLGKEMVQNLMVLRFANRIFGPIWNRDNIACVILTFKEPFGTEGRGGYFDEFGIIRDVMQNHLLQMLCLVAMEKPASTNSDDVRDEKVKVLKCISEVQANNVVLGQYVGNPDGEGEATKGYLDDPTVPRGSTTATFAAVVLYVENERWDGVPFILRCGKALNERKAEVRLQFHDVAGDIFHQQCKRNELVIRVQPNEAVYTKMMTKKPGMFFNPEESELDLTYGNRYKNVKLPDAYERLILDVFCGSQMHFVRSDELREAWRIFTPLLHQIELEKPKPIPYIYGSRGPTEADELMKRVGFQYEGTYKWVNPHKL
Sequence of Steroidogenic factor 1 (Q13285 whole entry): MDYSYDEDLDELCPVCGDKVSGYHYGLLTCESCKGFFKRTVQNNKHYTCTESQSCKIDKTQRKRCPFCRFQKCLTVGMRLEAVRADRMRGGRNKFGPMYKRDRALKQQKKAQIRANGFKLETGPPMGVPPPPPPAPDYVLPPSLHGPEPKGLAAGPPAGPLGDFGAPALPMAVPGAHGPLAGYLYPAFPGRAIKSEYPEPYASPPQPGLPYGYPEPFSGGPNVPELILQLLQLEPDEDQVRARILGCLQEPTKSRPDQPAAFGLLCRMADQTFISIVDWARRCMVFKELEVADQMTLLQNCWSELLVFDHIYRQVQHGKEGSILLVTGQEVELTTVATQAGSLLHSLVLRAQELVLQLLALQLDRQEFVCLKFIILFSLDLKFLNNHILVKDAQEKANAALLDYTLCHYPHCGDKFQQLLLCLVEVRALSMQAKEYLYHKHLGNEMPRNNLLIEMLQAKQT
Sequence of Large T antigen (P03070 whole entry): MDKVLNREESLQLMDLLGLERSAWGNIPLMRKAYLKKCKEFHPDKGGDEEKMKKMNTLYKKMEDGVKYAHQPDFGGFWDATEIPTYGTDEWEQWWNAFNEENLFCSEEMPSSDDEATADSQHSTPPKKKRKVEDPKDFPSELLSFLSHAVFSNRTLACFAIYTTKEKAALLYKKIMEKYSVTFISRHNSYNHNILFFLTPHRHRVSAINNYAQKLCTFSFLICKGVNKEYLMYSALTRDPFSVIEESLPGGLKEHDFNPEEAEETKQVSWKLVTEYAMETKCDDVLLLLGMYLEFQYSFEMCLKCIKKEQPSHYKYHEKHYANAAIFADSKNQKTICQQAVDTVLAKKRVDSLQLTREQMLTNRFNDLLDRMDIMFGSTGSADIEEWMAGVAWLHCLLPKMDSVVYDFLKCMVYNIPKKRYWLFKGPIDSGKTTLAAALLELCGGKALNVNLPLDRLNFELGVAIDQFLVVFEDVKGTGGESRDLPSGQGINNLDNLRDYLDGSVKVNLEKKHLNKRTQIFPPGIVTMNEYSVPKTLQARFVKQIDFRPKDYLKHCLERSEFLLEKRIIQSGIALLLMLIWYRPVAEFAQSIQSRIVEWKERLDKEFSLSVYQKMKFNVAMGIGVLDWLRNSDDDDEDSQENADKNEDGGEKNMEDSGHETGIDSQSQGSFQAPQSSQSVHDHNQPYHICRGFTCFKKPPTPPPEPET
Sequence of Potassium voltage-gated channel subfamily KQT member 2 (O88943 whole entry, the tested form may be a part): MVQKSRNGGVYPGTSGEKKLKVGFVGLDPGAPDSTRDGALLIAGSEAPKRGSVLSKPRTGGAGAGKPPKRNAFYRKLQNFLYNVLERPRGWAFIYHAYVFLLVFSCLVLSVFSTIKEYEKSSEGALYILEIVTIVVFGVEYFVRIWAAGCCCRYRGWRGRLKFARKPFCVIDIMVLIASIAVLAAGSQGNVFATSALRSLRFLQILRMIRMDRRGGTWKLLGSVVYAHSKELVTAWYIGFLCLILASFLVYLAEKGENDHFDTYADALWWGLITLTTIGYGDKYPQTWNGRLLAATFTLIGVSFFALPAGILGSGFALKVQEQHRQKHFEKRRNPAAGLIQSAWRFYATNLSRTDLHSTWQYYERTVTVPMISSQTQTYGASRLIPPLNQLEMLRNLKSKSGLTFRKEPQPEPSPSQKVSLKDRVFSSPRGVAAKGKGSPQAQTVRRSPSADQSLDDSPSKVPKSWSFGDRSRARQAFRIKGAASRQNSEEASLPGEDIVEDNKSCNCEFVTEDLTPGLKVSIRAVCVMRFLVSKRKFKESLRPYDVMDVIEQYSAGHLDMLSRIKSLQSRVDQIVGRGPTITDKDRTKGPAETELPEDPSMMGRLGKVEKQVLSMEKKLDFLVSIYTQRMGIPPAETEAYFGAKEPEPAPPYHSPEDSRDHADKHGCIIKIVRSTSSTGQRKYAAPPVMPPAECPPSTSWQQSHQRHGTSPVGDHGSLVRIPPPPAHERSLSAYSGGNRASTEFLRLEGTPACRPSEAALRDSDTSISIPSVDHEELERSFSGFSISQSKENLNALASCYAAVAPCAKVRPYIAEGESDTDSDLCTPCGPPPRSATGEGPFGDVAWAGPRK

With `CC(C)(C)n1nc2c(c1NC(=O)c1ccc(S(=O)(=O)N3CCCC3)cc1)CSC2` the IC50 [1] was 12.7 µM (active) and the IC50 [2] was 36.1 µM (active).
For `Cc1ccccc1Nc1cc(C)c2c(O)cccc2n1`, the AC50 [3] was 6.73 µM (active), the IC50 [4] was 6.78 µM (active) and the IC50 [5] was 22.7 µM (inactive). The IC50 [6] was 80 µM (inactive).
In the case of `CS(=O)(=O)c1ccc(N)c(SSc2cc(S(C)(=O)=O)ccc2N)c1`, the IC50 [7] is reported as > 55.7 µM (not active), the IC50 [8] is reported as 13 µM (active) and the IC50 [9] is reported as 23.9 µM (inactive). For the same compound, the EC50 [10] was > 104 µM (inactive) and the IC50 [11] was 7.08 µM (active).
With `COc1ccc(-c2cc(C(=O)N3CC(C)CC(C)C3)c3ccccc3n2)cc1OC` (configuration not stated) the IC50 [12] was 1.51 µM (active).
For `CCN(CC(=O)Nc1ccc(NC(C)=O)cc1)C(=O)CSc1ncnc2sc(C)c(C)c12`, the IC50 [13] was 5.42 µM (active) and the IC50 [14] was 4.9 µM (active).
In the case of `COc1ccc(CCNC(=O)COC(=O)c2cccn2C)cc1`, the IC50 [15] is reported as 35.9 µM (inactive), the IC50 [16] is reported as 7.32 µM (active) and the IC50 [17] is reported as 35.9 µM (inactive).
With `CCN(CC)CCNc1cccc2sc3ccccc3c(=O)c12` the AC50 [18] was 6.59 µM (active), the AC50 [19] was 51.4 µM (active) and the IC50 [14] was 46.3 µM (inactive).
In the case of `Cc1ccc(S(=O)(=O)Nc2ccc3c(c2)CC(=O)N([C@H](C)CO)C[C@H](C)[C@@H](CN(C)Cc2ccc(Cl)c(Cl)c2)O3)cc1`, the AC50 [20] is reported as 13 µM (active) and the AC50 [21] is reported as 13.3 µM (active).
